Measured values as given in patent US20240306670A1, “BERBERINE ALKALOIDS IN THE PREVENTION AND/OR TREATMENT OF INTESTINAL DISEASE” (priority 2017, published 2024).

Assay: General safety in broilers reared to market weight by histology (Example 8)
Details: histology D42

For `COc1ccc2cc3[n+](cc2c1OC)CCc1cc2c(cc1-3)OCO2` [IRP001 chloride, berberine chloride], which “gastrointestinal tract (GIT) histologic lesions” value is on record?
The value was “within normal limits”.

And the liver histologic lesions?
The liver histologic lesions was “within normal limits”.
